This note sets out measurements from BindingDB's records for doi:10.1021/jm7013887 (Abbott Laboratories, 2008).

Test [1] addresses T1, Diacylglycerol O-acyltransferase 1 (Mus musculus, UniProt Q9Z2A7).
T1 sequence (Q9Z2A7 whole entry): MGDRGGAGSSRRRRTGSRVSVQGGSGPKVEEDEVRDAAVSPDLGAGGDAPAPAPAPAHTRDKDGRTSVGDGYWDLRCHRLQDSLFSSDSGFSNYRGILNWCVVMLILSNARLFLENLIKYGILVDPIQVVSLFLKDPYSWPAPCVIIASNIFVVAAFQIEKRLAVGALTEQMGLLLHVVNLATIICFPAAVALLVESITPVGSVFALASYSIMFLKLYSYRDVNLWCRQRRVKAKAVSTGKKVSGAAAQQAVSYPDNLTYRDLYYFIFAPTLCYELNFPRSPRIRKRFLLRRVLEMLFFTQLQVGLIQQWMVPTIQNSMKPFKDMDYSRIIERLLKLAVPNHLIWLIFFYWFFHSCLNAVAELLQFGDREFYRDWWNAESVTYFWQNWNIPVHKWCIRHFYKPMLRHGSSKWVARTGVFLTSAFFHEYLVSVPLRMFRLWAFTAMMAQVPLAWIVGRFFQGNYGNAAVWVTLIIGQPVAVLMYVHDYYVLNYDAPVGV
The test can be described thus: In Vitro FlashPlate Assay. Conditions: pH 7.5; 22 °C. The protocol:
(§1) DGAT-1 activity was characterized by catalyzing the transfer of the radiolabeled decanoyl group onto the syn-3 position of didecanoyl glycerol. The resultant radiolabeled tridecanoyl glycerol (tricaprin) preferentially binds to the hydrophobic coating on the phospholipid FlashPlate, and radioactivity was measured in the TopCount Plate Reader. Various concentrations (0.0001 uM to 10 uM) of test compounds were added to individual wells prior to the addition of membranes.

Test [2] deals with T2, Diacylglycerol O-acyltransferase 1 (Homo sapiens, UniProt O75907).
T2 sequence (O75907 whole entry): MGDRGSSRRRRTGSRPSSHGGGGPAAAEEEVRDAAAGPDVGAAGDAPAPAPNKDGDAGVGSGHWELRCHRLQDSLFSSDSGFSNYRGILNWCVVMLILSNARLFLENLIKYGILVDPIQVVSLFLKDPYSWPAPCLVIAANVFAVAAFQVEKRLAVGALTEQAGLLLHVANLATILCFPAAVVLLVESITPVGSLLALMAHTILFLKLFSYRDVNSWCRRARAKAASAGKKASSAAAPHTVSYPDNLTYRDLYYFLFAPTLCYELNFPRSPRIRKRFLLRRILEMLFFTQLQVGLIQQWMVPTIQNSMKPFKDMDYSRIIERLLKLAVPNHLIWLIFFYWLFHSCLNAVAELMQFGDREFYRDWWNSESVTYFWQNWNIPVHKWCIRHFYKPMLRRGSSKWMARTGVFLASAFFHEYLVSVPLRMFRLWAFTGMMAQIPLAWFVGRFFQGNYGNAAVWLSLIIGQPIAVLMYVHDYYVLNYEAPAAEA
The test is described as follows: In Vitro FlashPlate Assay. Conditions: pH 7.5; 22 °C. On the procedure:
as §1

For orientation: IC50 means the midpoint of a concentration-inhibition curve. A high value points to weaker potency.

For `COc1ccc(NC(=O)Nc2ccc(-c3ccc(C(=O)[C@@H]4CCC[C@H]4C(=O)O)cc3)cc2)cc1` [(1R,2R)-2-{[4-(4-{[(4-methoxyphenyl)carbamoyl]amino}phenyl)phenyl]carbonyl}cyclopentane-1-carboxylic acid], the IC50 in test [1] amounted to 28 nM; in test [2], 9 nM.
